Laboratory results: patent US20160145257A1, “SUBSTITUTED XANTHINES AND METHODS OF USE THEREOF” (Hydra Biosciences, Inc., priority 2013, published 2016)
Where a name gives a salt, the structure may show the parent alone.

Biological target: T1, hTRPC5 (Homo sapiens, UniProt Q9UL62)
T1 construct: expressed in transfected cells; host or cells: HEK293 TREx cells with inducible TRPC5 expression
T1 sequence (Q9UL62 1-973): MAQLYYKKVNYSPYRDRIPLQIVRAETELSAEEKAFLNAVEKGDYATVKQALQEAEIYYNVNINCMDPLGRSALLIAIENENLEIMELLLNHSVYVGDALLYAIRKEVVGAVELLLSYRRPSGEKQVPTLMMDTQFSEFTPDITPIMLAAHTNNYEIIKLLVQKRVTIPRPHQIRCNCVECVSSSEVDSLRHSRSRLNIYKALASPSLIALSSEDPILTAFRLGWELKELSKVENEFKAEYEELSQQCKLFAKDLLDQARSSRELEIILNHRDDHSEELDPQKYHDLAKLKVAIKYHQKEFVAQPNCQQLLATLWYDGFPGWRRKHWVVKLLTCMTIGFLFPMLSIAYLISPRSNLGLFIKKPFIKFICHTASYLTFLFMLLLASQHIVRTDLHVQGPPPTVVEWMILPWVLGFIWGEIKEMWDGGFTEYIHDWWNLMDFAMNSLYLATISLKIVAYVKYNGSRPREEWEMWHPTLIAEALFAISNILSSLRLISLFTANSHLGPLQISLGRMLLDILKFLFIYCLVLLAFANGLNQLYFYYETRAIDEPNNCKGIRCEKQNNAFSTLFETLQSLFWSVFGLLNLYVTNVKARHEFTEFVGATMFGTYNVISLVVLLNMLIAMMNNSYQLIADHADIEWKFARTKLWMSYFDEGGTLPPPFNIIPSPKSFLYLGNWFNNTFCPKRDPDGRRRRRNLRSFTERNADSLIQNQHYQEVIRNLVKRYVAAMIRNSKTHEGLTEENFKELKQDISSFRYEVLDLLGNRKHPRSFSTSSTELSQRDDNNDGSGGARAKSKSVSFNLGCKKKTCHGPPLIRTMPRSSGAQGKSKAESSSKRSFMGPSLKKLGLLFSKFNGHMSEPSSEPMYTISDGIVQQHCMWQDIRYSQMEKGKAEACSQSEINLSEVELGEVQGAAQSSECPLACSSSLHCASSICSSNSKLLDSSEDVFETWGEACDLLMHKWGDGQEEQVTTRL
Test: Whole-cell patch clamp, block of LaCl3-activated TRPC5 inward current
Type: cell-based
Settings: TRPC5-expressing HEK293 TREx cells, 80 μM LaCl3, inward current, IC50 estimated from 5 μM and 500 nM, read-out: hTRPC5 Patch La3+ Inwd (nM) (All Batches)
Procedure, shortened: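 Whole-cell recordings in induced TRPC5-expressing HEK293 TREx cells, holding −40 mV, 400 ms ramps −120 to +100 mV every 5 s; current activated by 80 μM external LaCl3 and 1,400 nM pipette free Ca2+ (pH 7.2 internal, 7.4 external). Inward block at −80 mV, with LaCl3 present; IC50 estimated from testing at 5 μM and 500 nM.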

`Cn1c(=O)c2c(nc(Cc3cccc(CO)c3)n2Cc2cccc(Br)c2)n(C)c1=O` [Compound 124] showed an IC50 of 2000 to 10000 nM.

In the case of `CCOCc1cccc(C(CC)c2nc3c(c(=O)n(C)c(=O)n3C)n2Cc2cccc(Br)c2)c1` (stereo not drawn) [Compound 125, 7-(3-bromobenzyl)-8-(1-(3-(ethoxymethyl)phenyl)propyl)-1,3-dimethyl-1H-purine-2,6(3H,7H)-dione], the IC50 is reported as 500 to 1000 nM.

`CCOCc1cccc(Oc2nc3c(c(=O)n(C)c(=O)n3C)n2Cc2cccc(Br)c2)c1` [Compound 126, 7-(3-bromobenzyl)-8-(3-(ethoxymethyl)phenoxy)-1,3-dimethyl-1H-purine-2,6(3H,7H)-dione] showed an IC50 of 100 to 500 nM.

Work on `CN(C)C(=O)c1cccc(Oc2nc3c(c(=O)n(C)c(=O)n3C)n2Cc2cccc(Br)c2)c1` [Compound 127] yielded an IC50 of 2000 to 10000 nM.

For `CCCOCCc1nc2c(c(=O)n(C)c(=O)n2C)n1Cc1cccc(-c2ccccc2)c1` [Compound 128, 7-(biphenyl-3-ylmethyl)-1,3-dimethyl-8-(2-propoxyethyl)-1H-purine-2,6(3H,7H)-dione], the IC50 was 100 to 500 nM.

`CCCOCCc1nc2c(c(=O)n(C)c(=O)n2C)n1Cc1ccc(-c2ccccc2)cc1` [Compound 129, 7-(biphenyl-4-ylmethyl)-1,3-dimethyl-8-(2-propoxyethyl)-1H-purine-2,6(3H,7H)-dione] showed an IC50 of 500 to 1000 nM.

Compound `CCc1coc(CSc2nc3c(c(=O)n(C)c(=O)n3C)n2Cc2cccc(OC)c2)n1` [Compound 130, 8-((4-ethyloxazol-2-yl)methylthio)-7-(3-methoxybenzyl)-1,3-dimethyl-1H-purine-2,6(3H,7H)-dione] has an IC50 of 500 to 1000 nM.

`CCc1coc(CSc2nc3c(c(=O)n(C)c(=O)n3C)n2Cc2ccc(OC)cc2)n1` [Compound 131, 8-((4-ethyloxazol-2-yl)methylthio)-7-(4-methoxybenzyl)-1,3-dimethyl-1H-purine-2,6(3H,7H)-dione] showed an IC50 of 500 to 1000 nM.

`CCc1coc(CSc2nc3c(c(=O)n(C)c(=O)n3C)n2Cc2cccc(C)c2)n1` [Compound 132, 8-((4-ethyloxazol-2-yl)methylthio)-1,3-dimethyl-7-(3-methylbenzyl)-1H-purine-2,6(3H,7H)-dione] was tested, and the IC50 was 100 to 500 nM.

Work on `CCc1coc(CSc2nc3c(c(=O)n(C)c(=O)n3C)n2Cc2ccc(C)cc2)n1` [Compound 133, 8-((4-ethyloxazol-2-yl)methylthio)-1,3-dimethyl-7-(4-methylbenzyl)-1H-purine-2,6(3H,7H)-dione] yielded an IC50 of 100 to 500 nM.

`CCc1coc(CSc2nc3c(c(=O)n(C)c(=O)n3C)n2Cc2cccc(Cl)c2)n1` [Compound 134, 7-(3-chlorobenzyl)-8-((4-ethyloxazol-2-yl)methylthio)-1,3-dimethyl-1H-purine-2,6(3H,7H)-dione] gave an IC50 of 100 to 500 nM.

For `CCOC(=O)CCC(C)c1nc2c(c(=O)n(C)c(=O)n2C)n1Cc1cccc(Br)c1` (stereo not drawn) [Compound 135, Ethyl 4-(7-(3-bromobenzyl)-1,3-dimethyl-2,6-dioxo-2,3,6,7-tetrahydro-1H-purin-8-yl)pentanoate], the IC50 was 500 to 1000 nM.

`CCOC(=O)C(C)CCc1nc2c(c(=O)n(C)c(=O)n2C)n1Cc1cccc(Br)c1` (stereo not drawn) [Compound 136, Ethyl 4-(7-(3-bromobenzyl)-1,3-dimethyl-2,6-dioxo-2,3,6,7-tetrahydro-1H-purin-8-yl)-2-methylbutanoate] showed an IC50 of 1000 to 2000 nM.

`Cn1c(=O)c2c(nc(Oc3cccc(C(F)(F)F)c3)n2Cc2cccc(Cl)c2)n(C)c1=O` [Compound 137, 7-(3-Chlorobenzyl)-1,3-dimethyl-8-(3-(trifluoromethyl)phenoxy)-1H-purine-2,6(3H,7H)-dione] gave an IC50 of 100 to 500 nM.

Compound `Cn1c(=O)c2c(nc(Oc3cccc(C(F)(F)F)c3)n2Cc2cccc(Br)c2)n(C)c1=O` [Compound 138, 7-(3-Bromobenzyl)-1,3-dimethyl-8-(3-(trifluoromethyl)phenoxy)-1H-purine-2,6(3H,7H)-dione] has an IC50 of 100 to 500 nM.

Compound `Cn1c(=O)c2c(nc(Oc3cccc(CO)c3)n2Cc2cccc(Cl)c2)n(C)c1=O` [Compound 140] has an IC50 of 2000 to 10000 nM.

With `CCCOCCc1nc2c(c(=O)n(C)c(=O)n2C)n1Cc1cccc(CO)c1` [Compound 141] the IC50 was 2000 to 10000 nM.

`Cn1c(=O)c2c(nc(Oc3cccc(C(F)(F)F)c3)n2Cc2ccc(Cl)nc2)n(C)c1=O` [Compound 143, 7-((6-chloropyridin-3-yl)methyl)-1,3-dimethyl-8-(3-(trifluoromethyl)phenoxy)-1H-purine-2,6(3H,7H)-dione] was tested, and the IC50 was 2000 to 10000 nM.

`Cn1c(=O)c2c(nc(Oc3ccc(C(F)(F)F)cc3)n2Cc2ccc(Cl)cc2)n(C)c1=O` [Compound 144] was tested, and the IC50 was 500 to 1000 nM.

In the case of `Cn1c(=O)c2c(nc(OCc3cccc(C(F)(F)F)c3)n2Cc2ccc(Cl)cc2)n(C)c1=O` [Compound 145, 7-(4-chlorobenzyl)-1,3-dimethyl-8-(3-(trifluoromethyl)benzyloxy)-1H-purine-2,6(3H,7H)-dione], the IC50 is reported as less than 100 nM.

For `CCc1coc(CSc2nc3c(c(=O)n(C)c(=O)n3C)n2Cc2ccc(Cl)cc2)n1` [Compound 146, 7-(4-chlorobenzyl)-8-((4-ethyloxazol-2-yl)methylthio)-1,3-dimethyl-1H-purine-2,6(3H,7H)-dione], the IC50 was less than 100 nM.

`CCc1coc(CSc2nc3c(c(=O)n(C)c(=O)n3C)n2Cc2cccc(F)c2)n1` [Compound 147, 8-((4-ethyloxazol-2-yl)methylthio)-7-(3-fluorobenzyl)-1,3-dimethyl-1H-purine-2,6(3H,7H)-dione] showed an IC50 of 100 to 500 nM.

In the case of `CCc1coc(CSc2nc3c(c(=O)n(C)c(=O)n3C)n2Cc2ccc(OC(F)(F)F)cc2)n1` [Compound 148, 8-((4-ethyloxazol-2-yl)methylthio)-1,3-dimethyl-7-(4-(trifluoromethoxy)benzyl)-1H-purine-2,6(3H,7H)-dione], the IC50 is reported as 100 to 500 nM.

Compound `CCCOCCc1nc2c(c(=O)n(C)c(=O)n2C)n1Cc1ccc(C(N)=O)cc1` [Compound 149] has an IC50 of 2000 to 10000 nM.

`CCCC(=O)C(C)(C)Sc1nc2c(c(=O)n(C)c(=O)n2C)n1Cc1cccc(Br)c1` [Compound 150, 7-(3-bromobenzyl)-1,3-dimethyl-8-(2-methyl-3-oxohexan-2-ylthio)-1H-purine-2,6(3H,7H)-dione] was tested, and the IC50 was less than 100 nM.

`CCCOCCc1nc2c(c(=O)n(C)c(=O)n2C)n1Cc1ccc(CO)cc1` [Compound 151] showed an IC50 of 2000 to 10000 nM.

`CNCc1cccc(Oc2nc3c(c(=O)n(C)c(=O)n3C)n2Cc2cccc(Cl)c2)c1` [Compound 152, hydrochloride] showed an IC50 of 2000 to 10000 nM.

`CN(C)Cc1cccc(Oc2nc3c(c(=O)n(C)c(=O)n3C)n2Cc2cccc(Cl)c2)c1` [Compound 153, 7-(3-Chlorobenzyl)-8-(3-((dimethylamino)methyl)phenoxy)-1,3-dimethyl-1H-purine-2,6(3H,7H)-dione hydrochloride] gave an IC50 of 2000 to 10000 nM.

With `CCOc1nc2c(c(=O)n(C)c(=O)n2C)n1Cc1cccc(Cl)c1` [Compound 154, 7-(3-Chlorobenzyl)-8-ethoxy-1,3-dimethyl-1H-purine-2,6(3H,7H)-dione] the IC50 was 2000 to 10000 nM.

`CCc1coc(CSc2nc3c(c(=O)n(C)c(=O)n3C)n2Cc2ccc(F)cc2)n1` [Compound 156, 8-((4-ethyloxazol-2-yl)methylthio)-7-(4-fluorobenzyl)-1,3-dimethyl-1H-purine-2,6(3H,7H)-dione] gave an IC50 of 100 to 500 nM.

`CCc1coc(CSc2nc3c(c(=O)n(C)c(=O)n3C)n2Cc2ccc(Br)cc2)n1` [Compound 157, 7-(4-bromobenzyl)-8-((4-ethyloxazol-2-yl)methylthio)-1,3-dimethyl-1H-purine-2,6(3H,7H)-dione] showed an IC50 of less than 100 nM.

`CCCOCCc1nc2c(c(=O)n(C)c(=O)n2C)n1Cc1ccc(C(C)=O)cc1` [Compound 158] was tested, and the IC50 was 2000 to 10000 nM.

In the case of `CCCOCCc1nc2c(c(=O)n(C)c(=O)n2C)n1Cc1cccc(C(C)=O)c1` [Compound 159], the IC50 is reported as 2000 to 10000 nM.

`COc1cccc(Cn2c(Oc3cccc(OC(F)(F)F)c3)nc3c2c(=O)n(C)c(=O)n3C)c1` [Compound 160, 7-(3-methoxybenzyl)-1,3-dimethyl-8-(3-(trifluoromethoxy)phenoxy)-1H-purine-2,6(3H,7H)-dione] gave an IC50 of 100 to 500 nM.

`CCCC(=O)c1cccc(Cc2nc3c(c(=O)n(C)c(=O)n3C)n2Cc2cccc(Br)c2)c1` [Compound 161, 7-(3-bromobenzyl)-8-(3-butyrylbenzyl)-1,3-dimethyl-1H-purine-2,6(3H,7H)-dione] showed an IC50 of 2000 to 10000 nM.

With `CNCc1cccc(Oc2nc3c(c(=O)n(C)c(=O)n3C)n2Cc2ccc(Cl)cc2)c1` [Compound 163, 7-(4-Chlorobenzyl)-1,3-dimethyl-8-(3-((methylaminol)methyl)phenoxy)-1H-purine-2,6(3H,7H)-dione hydrochloride] the IC50 was 2000 to 10000 nM.
